Counter-ions that a name gives are not always drawn.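 Grown in 96-well plates, cells were treated for 48 hours with each compound at five concentrations. Insufficient inhibition: endpoint recorded as highest concentration tested. GI50: concentration for 50% inhibition of growth.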 The source made the active and inactive calls. Rule as the data show it: active = GI50 up to about 1.1 µM and inactive = higher.
Columns and labels:
Experiment in all cases: NCI anticancer screen, dose series, 48 h
[1] = system: OVCAR-4
[2] = system: MOLT-4
[3] = system: NCI-H522
[4] = system: RXF 393
[5] = system: MDA-MB-231
[6] = system: SK-MEL-5
[7] = system: NCI-H460
[8] = system: OVCAR-5
[9] = system: SK-MEL-2
[10] = system: SN12C
[11] = system: Hs-578T
[12] = system: M14
[13] = system: MDA-N
[14] = system: MCF7
[15] = system: DU-145
[16] = system: U-251
[17] = system: SF-268
[18] = system: ACHN
[19] = system: SR
[20] = system: HCC 2998

Structure (SMILES) | GI50 [1] | GI50 [2] | GI50 [3] | GI50 [4] | GI50 [5] | GI50 [6] | GI50 [7] | GI50 [8] | GI50 [9] | GI50 [10] | GI50 [11] | GI50 [12] | GI50 [13] | GI50 [14] | GI50 [15] | GI50 [16] | GI50 [17] | GI50 [18] | GI50 [19] | GI50 [20]
NCCCN1CCN(c2ccccc2)CC1 | > 100 µM (inactive) | 79.3 µM (inactive) | 73.6 µM (inactive) | > 100 µM (inactive) | > 100 µM (inactive) | > 100 µM (inactive) | > 100 µM (inactive) | > 100 µM (inactive) | > 100 µM (inactive) | > 100 µM (inactive) | > 100 µM (inactive) | 35.3 µM (inactive) | > 100 µM (inactive) | > 100 µM (inactive) | > 100 µM (inactive) | > 100 µM (inactive) | > 100 µM (inactive) | > 100 µM (inactive) | 34.3 µM (inactive) | –
OC(C/C=N/Nc1ccccc1)(C(F)(F)Cl)C(F)(F)Cl | > 10 µM (inactive) | – | 4.05 µM (inactive) | 6.75 µM (inactive) | 4 µM (inactive) | > 10 µM (inactive) | 5.53 µM (inactive) | – | > 10 µM (inactive) | > 10 µM (inactive) | 4.66 µM (inactive) | > 10 µM (inactive) | > 10 µM (inactive) | > 10 µM (inactive) | > 10 µM (inactive) | > 10 µM (inactive) | > 10 µM (inactive) | 4.49 µM (inactive) | – | 4.12 µM (inactive)
Clc1ccccc1NN(Cc1ccccn1)c1ccccc1Cl | 16.2 µM (inactive) | 17.3 µM (inactive) | 17.6 µM (inactive) | 14.9 µM (inactive) | 23.4 µM (inactive) | 14.5 µM (inactive) | – | 20.9 µM (inactive) | 17.1 µM (inactive) | 18.8 µM (inactive) | 26.2 µM (inactive) | 18.5 µM (inactive) | 17.2 µM (inactive) | 36.1 µM (inactive) | 35.5 µM (inactive) | 15.8 µM (inactive) | 22.7 µM (inactive) | 33.9 µM (inactive) | 13.4 µM (inactive) | –
COc1ccc(N(CC(=O)O)N=O)cc1 | > 100 µM (inactive) | > 100 µM (inactive) | > 100 µM (inactive) | > 100 µM (inactive) | > 100 µM (inactive) | > 100 µM (inactive) | > 100 µM (inactive) | > 100 µM (inactive) | > 100 µM (inactive) | > 100 µM (inactive) | > 100 µM (inactive) | > 100 µM (inactive) | > 100 µM (inactive) | > 100 µM (inactive) | > 100 µM (inactive) | > 100 µM (inactive) | > 100 µM (inactive) | > 100 µM (inactive) | > 100 µM (inactive) | –
CC(C)(C)OC(=O)NC(Cc1ccc(O)cn1)C(=O)O (stereo not given) | > 100 µM (inactive) | > 100 µM (inactive) | > 100 µM (inactive) | > 100 µM (inactive) | > 100 µM (inactive) | > 100 µM (inactive) | > 100 µM (inactive) | > 100 µM (inactive) | – | > 100 µM (inactive) | > 100 µM (inactive) | – | > 100 µM (inactive) | > 100 µM (inactive) | > 100 µM (inactive) | > 100 µM (inactive) | > 100 µM (inactive) | > 100 µM (inactive) | > 100 µM (inactive) | > 100 µM (inactive)
COc1ccc(C(=O)O[C@@H]2CCN3CC[C@H](C)[C@H]23)cc1 | – | > 100 µM (inactive) | > 100 µM (inactive) | 45.9 µM (inactive) | > 100 µM (inactive) | > 100 µM (inactive) | > 100 µM (inactive) | > 100 µM (inactive) | > 100 µM (inactive) | > 100 µM (inactive) | > 100 µM (inactive) | > 100 µM (inactive) | > 100 µM (inactive) | > 100 µM (inactive) | > 100 µM (inactive) | > 100 µM (inactive) | > 100 µM (inactive) | > 100 µM (inactive) | > 100 µM (inactive) | –
Nc1ccc(-c2nc3cc(F)ccc3s2)cc1I | 0.0782 µM (active) | > 100 µM (inactive) | 13.6 µM (inactive) | 15 µM (inactive) | 13.6 µM (inactive) | 21.7 µM (inactive) | 0.0276 µM (active) | 0.274 µM (active) | 20.2 µM (inactive) | 20.9 µM (inactive) | 25.2 µM (inactive) | 39.3 µM (inactive) | > 100 µM (inactive) | < 0.0154 µM (active) | 43.7 µM (inactive) | 13.9 µM (inactive) | 16.5 µM (inactive) | 5.36 µM (inactive) | – | < 0.01 µM (active)
COc1ccc(C(F)(F)F)cc1NC(=O)O/N=C(/Cl)C(C)C | 19.1 µM (inactive) | 2.05 µM (inactive) | 2.26 µM (inactive) | 19.6 µM (inactive) | 19.4 µM (inactive) | 10.7 µM (inactive) | 37.6 µM (inactive) | 20.6 µM (inactive) | 18.8 µM (inactive) | 16.2 µM (inactive) | 30.4 µM (inactive) | 16.9 µM (inactive) | 16.3 µM (inactive) | 21.2 µM (inactive) | 19.2 µM (inactive) | 26.4 µM (inactive) | 23.8 µM (inactive) | 10.5 µM (inactive) | – | 19.9 µM (inactive)
CCOC(=O)/C(C(=O)Nc1ccc(F)cc1)=C(/N)N1CCOCC1 | > 100 µM (inactive) | > 100 µM (inactive) | > 100 µM (inactive) | > 100 µM (inactive) | > 100 µM (inactive) | – | > 100 µM (inactive) | > 100 µM (inactive) | > 100 µM (inactive) | > 100 µM (inactive) | > 100 µM (inactive) | > 100 µM (inactive) | > 100 µM (inactive) | > 100 µM (inactive) | > 100 µM (inactive) | > 100 µM (inactive) | > 100 µM (inactive) | > 100 µM (inactive) | – | > 100 µM (inactive)
FC(F)(F)c1ccc2nc(Sc3ccc4ccccc4c3)cnc2c1 | 51.5 µM (inactive) | 24.5 µM (inactive) | 37.5 µM (inactive) | 21.9 µM (inactive) | 62.7 µM (inactive) | 28.1 µM (inactive) | 73.1 µM (inactive) | > 100 µM (inactive) | 23.1 µM (inactive) | 73.8 µM (inactive) | > 100 µM (inactive) | 87.9 µM (inactive) | 38.5 µM (inactive) | 45 µM (inactive) | > 100 µM (inactive) | 25.2 µM (inactive) | > 100 µM (inactive) | > 100 µM (inactive) | – | 52 µM (inactive)
OC(CNc1ccccn1)c1ccccc1 (stereo not given) [PHENYRAMIDOL HYDROCHLORIDE] | > 100 µM (inactive) | > 100 µM (inactive) | > 100 µM (inactive) | > 100 µM (inactive) | > 100 µM (inactive) | > 100 µM (inactive) | > 100 µM (inactive) | > 100 µM (inactive) | > 100 µM (inactive) | 63.1 µM (inactive) | > 100 µM (inactive) | > 100 µM (inactive) | > 100 µM (inactive) | > 100 µM (inactive) | > 100 µM (inactive) | 67.6 µM (inactive) | > 100 µM (inactive) | > 100 µM (inactive) | – | > 100 µM (inactive)
O=C1/C(=C/c2cccc([N+](=O)[O-])c2)Cc2ccccc21 | 75 µM (inactive) | > 100 µM (inactive) | 59.3 µM (inactive) | – | > 100 µM (inactive) | – | > 100 µM (inactive) | > 100 µM (inactive) | > 100 µM (inactive) | > 100 µM (inactive) | > 100 µM (inactive) | > 100 µM (inactive) | > 100 µM (inactive) | > 100 µM (inactive) | > 100 µM (inactive) | 60.1 µM (inactive) | > 100 µM (inactive) | > 100 µM (inactive) | 36.8 µM (inactive) | –
CCc1cn(C2CC(CO)C(CO)S2)c(=O)[nH]c1=O (stereo not given) | > 100 µM (inactive) | > 100 µM (inactive) | > 100 µM (inactive) | > 100 µM (inactive) | > 100 µM (inactive) | > 100 µM (inactive) | – | > 100 µM (inactive) | > 100 µM (inactive) | > 100 µM (inactive) | > 100 µM (inactive) | > 100 µM (inactive) | > 100 µM (inactive) | > 100 µM (inactive) | > 100 µM (inactive) | > 100 µM (inactive) | > 100 µM (inactive) | > 100 µM (inactive) | – | > 100 µM (inactive)
COC(=O)CCCc1ccc2c(c1)CCC2 | > 100 µM (inactive) | > 100 µM (inactive) | 92.3 µM (inactive) | – | > 100 µM (inactive) | > 100 µM (inactive) | > 100 µM (inactive) | > 100 µM (inactive) | > 100 µM (inactive) | > 100 µM (inactive) | > 100 µM (inactive) | > 100 µM (inactive) | > 100 µM (inactive) | > 100 µM (inactive) | > 100 µM (inactive) | > 100 µM (inactive) | > 100 µM (inactive) | > 100 µM (inactive) | > 100 µM (inactive) | > 100 µM (inactive)
COC(=O)[C@]1(C)CCC[C@@]2(C)C1CC[C@@]13C=C(C(C)C)[C@@H](CC1=O)CC23 (stereo not given in full) | 35.2 µM (inactive) | 15 µM (inactive) | 18.6 µM (inactive) | 21.5 µM (inactive) | 30.3 µM (inactive) | 16.5 µM (inactive) | 35.4 µM (inactive) | – | – | 19.8 µM (inactive) | 13.4 µM (inactive) | 38.5 µM (inactive) | 28.8 µM (inactive) | 26.1 µM (inactive) | 38.4 µM (inactive) | 18.7 µM (inactive) | 32.5 µM (inactive) | 18.6 µM (inactive) | 15.5 µM (inactive) | 38.3 µM (inactive)
